Results as given in patent EP1910527B1, “MALTOSE-1-PHOSPHATE-PRODUCING ENZYME” (Kao Corporation, priority 2005, dated 2007).

Tests used:
[1] = system: M-1-P-producing enzyme; experiment: Maltose transfer reaction without phosphate, HPLC analysis of products; assay type: biochemical, Corynebacterium glutamicum JCM1321; settings: 2.0% substrate, 0.16 U/mL enzyme, one hour at 37°C
Description: As substrates, 2% dextrin MAX 1000 (Matsutani Chemical) and 1M phosphate buffer (pH 7) were employed. To the substrates, a suitably diluted enzyme was added, and the mixture was incubated for one hour at 37°C, followed by quantification of the produced […] through HPLC. Specifically, quantification of […] was performed through use of a DX500 chromatography system (product of DIONEX Corporation) (column: CarboPac PA1 (4x250 mm), detector: ED40 pulsed amperometric detector, eluent: (solution A) 100mM sodium hydroxide; (solution B) 100mM sodium hydroxide containing 1M sodium acetate). Linear gradient analysis was employed (initial concentration: solution.A 90% : solution B 10%, 0-17 min.: solution A 18.5% : solution B 81.5%). As standard substances, 100mM and 50mM […] products (product of SIGMA) were employed. […] One enzyme unit (1U) is defined as the amount of enzyme that produces 1 μM of […] per minute. 0.16 U/mL […]-producing enzyme was allowed to react with each of the substrates having different chain lengths (glucose, maltose, maltotriose, maltotetraose, maltopentaose, maltohexaose (Seikagaku Corporation)) (2.0%) for one hour at 37°C, and the reaction mixture was subjected to HPLC for analysis in a manner similar to that described in Example 1 (the results are represented as peak area). The retention times of maltooligosaccharides (DP=1 to 11) were estimated through analysis of dextrin (Matsutani Chemical).

[2] = system: M-1-P-producing enzyme; experiment: Substrate specificity: production of M-1-P from phosphate and saccharide substrates, HPLC quantification; assay type: biochemical, Corynebacterium glutamicum JCM1321; settings: 2.5% substrate, 250mM phosphate buffer (pH 7), 0.16 U/mL enzyme, 15 hours at 37°C
Description: As substrates, 2% dextrin MAX 1000 (Matsutani Chemical) and 1M phosphate buffer (pH 7) were employed. To the substrates, a suitably diluted enzyme was added, and the mixture was incubated for one hour at 37°C, followed by quantification of the produced […] through HPLC. Specifically, quantification of […] was performed through use of a DX500 chromatography system (product of DIONEX Corporation) (column: CarboPac PA1 (4x250 mm), detector: ED40 pulsed amperometric detector, eluent: (solution A) 100mM sodium hydroxide; (solution B) 100mM sodium hydroxide containing 1M sodium acetate). Linear gradient analysis was employed (initial concentration: solution.A 90% : solution B 10%, 0-17 min.: solution A 18.5% : solution B 81.5%). As standard substances, 100mM and 50mM […] products (product of SIGMA) were employed. […] One enzyme unit (1U) is defined as the amount of enzyme that produces 1 μM of […] per minute. To 2.5% Dextrin MAX 1000 (Matsutani Chemical) and 250mM phosphate buffer (pH 7), 0.16 U/mL M-1-P-producing enzyme was added, and the mixture was allowed to react for 15 hours at 37°C. In a manner similar to that described in Example 1, […] was quantified. […] To 250mM Phosphate buffer (pH 7) and each of substrates having different chain lengths (glucose, maltose, maltotriose, maltotetraose, maltopentaose, maltohexaose (Seikagaku Corporation)) (2.5%), 0.16 U/mL M-1-P-producing enzyme was added, and the mixture was allowed to react for 15 hours at 37°C. In a manner similar to that described in Example 1, […] was quantified.

SMILES: OC[C@H]1O[C@H](O[C@H]2[C@H](O)[C@@H](O)C(O)O[C@@H]2CO)[C@H](O)[C@@H](O)[C@@H]1O (mixture of isomers) [Maltose]
- Product (Peak area x 10^6): DP=3 [1]: 0.27 x 10^6
- Product (Peak area x 10^6): DP=4 [1]: 0.00 x 10^6
- Product (Peak area x 10^6): DP=5 [1]: 0.00 x 10^6
- Product (Peak area x 10^6): DP=6 [1]: 0.00 x 10^6
- Product (Peak area x 10^6): DP=7 [1]: 0.00 x 10^6
- Product (Peak area x 10^6): DP=8 [1]: 0.00 x 10^6
- Product (Peak area x 10^6): DP=9 [1]: 0.00 x 10^6
- Product (Peak area x 10^6): DP=10 [1]: 0.00 x 10^6
- Product (Peak area x 10^6): DP=11 [1]: 0.00 x 10^6
- Product (Peak area x 10^6): Glucose [1]: 0.19 x 10^6
- Product (Peak area x 10^6): Maltose [1]: 46.79 x 10^6

SMILES: OC[C@H]1OC(O)[C@H](O)[C@@H](O)[C@@H]1O (some centres unmarked) [Glucose]
- Product (Peak area x 10^6): DP=3 [1]: 0.00 x 10^6
- Product (Peak area x 10^6): DP=4 [1]: 0.00 x 10^6
- Product (Peak area x 10^6): DP=5 [1]: 0.00 x 10^6
- Product (Peak area x 10^6): DP=6 [1]: 0.00 x 10^6
- Product (Peak area x 10^6): DP=7 [1]: 0.00 x 10^6
- Product (Peak area x 10^6): DP=8 [1]: 0.00 x 10^6
- Product (Peak area x 10^6): DP=9 [1]: 0.00 x 10^6
- Product (Peak area x 10^6): DP=10 [1]: 0.00 x 10^6
- Product (Peak area x 10^6): DP=11 [1]: 0.00 x 10^6
- Product (Peak area x 10^6): Glucose [1]: 65.97 x 10^6
- Product (Peak area x 10^6): Maltose [1]: 0.00 x 10^6

SMILES: OC[C@H]1O[C@H](O[C@H]2[C@H](O)[C@@H](O)[C@@H](O[C@H]3[C@H](O)[C@@H](O)[C@@H](O[C@H]4[C@H](O)[C@@H](O)[C@@H](O[C@H]5[C@H](O)[C@@H](O)[C@@H](O[C@H]6[C@H](O)[C@@H](O)[C@@H](O[C@H]7[C@H](O)[C@@H](O)C(O)O[C@@H]7CO)O[C@@H]6CO)O[C@@H]5CO)O[C@@H]4CO)O[C@@H]3CO)O[C@@H]2CO)[C@H](O)[C@@H](O)[C@@H]1O (some centres unmarked) [Maltoheptaose]
- Amount of maltose-1-phosphate produced [2]: 96.1 µM
- Product (Peak area x 10^6): DP=3 [1]: 0.12 x 10^6
- Product (Peak area x 10^6): DP=4 [1]: 0.19 x 10^6
- Product (Peak area x 10^6): DP=5 [1]: 9.59 x 10^6
- Product (Peak area x 10^6): DP=6 [1]: 0.00 x 10^6
- Product (Peak area x 10^6): DP=7 [1]: 6.36 x 10^6
- Product (Peak area x 10^6): DP=8 [1]: 0.00 x 10^6
- Product (Peak area x 10^6): DP=9 [1]: 3.42 x 10^6
- Product (Peak area x 10^6): DP=10 [1]: 0.00 x 10^6
- Product (Peak area x 10^6): DP=11 [1]: 3.47 x 10^6
- Product (Peak area x 10^6): Glucose [1]: 0.11 x 10^6
- Product (Peak area x 10^6): Maltose [1]: 0.28 x 10^6

SMILES: OC[C@H]1O[C@H](O[C@H]2[C@H](O)[C@@H](O)[C@@H](O[C@H]3[C@H](O)[C@@H](O)[C@@H](O[C@H]4[C@H](O)[C@@H](O)[C@@H](O[C@H]5[C@H](O)[C@@H](O)[C@@H](O[C@H]6[C@H](O)[C@@H](O)C(O)O[C@@H]6CO)O[C@@H]5CO)O[C@@H]4CO)O[C@@H]3CO)O[C@@H]2CO)[C@H](O)[C@@H](O)[C@@H]1O (some centres unmarked) [Maltohexaose]
- Amount of maltose-1-phosphate produced [2]: 49.6 µM
- Product (Peak area x 10^6): DP=3 [1]: 0.37 x 10^6
- Product (Peak area x 10^6): DP=4 [1]: 10.20 x 10^6
- Product (Peak area x 10^6): DP=5 [1]: 0.00 x 10^6
- Product (Peak area x 10^6): DP=6 [1]: 8.87 x 10^6
- Product (Peak area x 10^6): DP=7 [1]: 0.00 x 10^6
- Product (Peak area x 10^6): DP=8 [1]: 5.04 x 10^6
- Product (Peak area x 10^6): DP=9 [1]: 0.00 x 10^6
- Product (Peak area x 10^6): DP=10 [1]: 3.96 x 10^6
- Product (Peak area x 10^6): DP=11 [1]: 0.00 x 10^6
- Product (Peak area x 10^6): Glucose [1]: 0.05 x 10^6
- Product (Peak area x 10^6): Maltose [1]: 0.61 x 10^6

SMILES: OC[C@H]1O[C@H](O[C@H]2[C@H](O)[C@@H](O)[C@@H](O[C@H]3[C@H](O)[C@@H](O)[C@@H](O[C@H]4[C@H](O)[C@@H](O)[C@@H](O[C@H]5[C@H](O)[C@@H](O)C(O)O[C@@H]5CO)O[C@@H]4CO)O[C@@H]3CO)O[C@@H]2CO)[C@H](O)[C@@H](O)[C@@H]1O (some centres unmarked) [Maltopentaose]
- Amount of maltose-1-phosphate produced [2]: 1.04 µM
- Product (Peak area x 10^6): DP=3 [1]: 0.51 x 10^6
- Product (Peak area x 10^6): DP=4 [1]: 0.58 x 10^6
- Product (Peak area x 10^6): DP=5 [1]: 26.40 x 10^6
- Product (Peak area x 10^6): DP=6 [1]: 0.00 x 10^6
- Product (Peak area x 10^6): DP=7 [1]: 0.52 x 10^6
- Product (Peak area x 10^6): DP=8 [1]: 0.00 x 10^6
- Product (Peak area x 10^6): DP=9 [1]: 0.00 x 10^6
- Product (Peak area x 10^6): DP=10 [1]: 0.00 x 10^6
- Product (Peak area x 10^6): DP=11 [1]: 0.00 x 10^6
- Product (Peak area x 10^6): Glucose [1]: 0.09 x 10^6
- Product (Peak area x 10^6): Maltose [1]: 0.27 x 10^6

SMILES: OC[C@H]1O[C@H](O[C@H]2[C@H](O)[C@@H](O)[C@@H](O[C@H]3[C@H](O)[C@@H](O)[C@@H](O[C@H]4[C@H](O)[C@@H](O)C(O)O[C@@H]4CO)O[C@@H]3CO)O[C@@H]2CO)[C@H](O)[C@@H](O)[C@@H]1O (some centres unmarked) [Maltotetraose]
- Product (Peak area x 10^6): DP=3 [1]: 1.25 x 10^6
- Product (Peak area x 10^6): DP=4 [1]: 30.80 x 10^6
- Product (Peak area x 10^6): DP=5 [1]: 0.00 x 10^6
- Product (Peak area x 10^6): DP=6 [1]: 0.36 x 10^6
- Product (Peak area x 10^6): DP=7 [1]: 0.00 x 10^6
- Product (Peak area x 10^6): DP=8 [1]: 0.00 x 10^6
- Product (Peak area x 10^6): DP=9 [1]: 0.00 x 10^6
- Product (Peak area x 10^6): DP=10 [1]: 0.00 x 10^6
- Product (Peak area x 10^6): DP=11 [1]: 0.00 x 10^6
- Product (Peak area x 10^6): Glucose [1]: 0.19 x 10^6
- Product (Peak area x 10^6): Maltose [1]: 0.15 x 10^6

SMILES: OC[C@H]1O[C@H](O[C@H]2[C@H](O)[C@@H](O)[C@@H](O[C@H]3[C@H](O)[C@@H](O)C(O)O[C@@H]3CO)O[C@@H]2CO)[C@H](O)[C@@H](O)[C@@H]1O (some centres unmarked) [Maltotriose]
- Product (Peak area x 10^6): DP=3 [1]: 33.27 x 10^6
- Product (Peak area x 10^6): DP=4 [1]: 0.12 x 10^6
- Product (Peak area x 10^6): DP=5 [1]: 0.00 x 10^6
- Product (Peak area x 10^6): DP=6 [1]: 0.00 x 10^6
- Product (Peak area x 10^6): DP=7 [1]: 0.00 x 10^6
- Product (Peak area x 10^6): DP=8 [1]: 0.00 x 10^6
- Product (Peak area x 10^6): DP=9 [1]: 0.00 x 10^6
- Product (Peak area x 10^6): DP=10 [1]: 0.00 x 10^6
- Product (Peak area x 10^6): DP=11 [1]: 0.00 x 10^6
- Product (Peak area x 10^6): Glucose [1]: 0.52 x 10^6
- Product (Peak area x 10^6): Maltose [1]: 1.84 x 10^6
